According to PMC6085350, “Small molecule inhibitors of RAS-effector protein interactions derived using an intracellular antibody fragment” (Nature Communications, 2018):

Assays:
[1] = target: T1, NRAS^Q61H interacting with PI3Kα, PI3Kγ, CRAF-RBD or full-length CRAF and RALGDS-RBD (Homo sapiens, UniProt P01111, Q61H); experiment: BRET2 RAS-effector PPI assay, NRAS Q61H; type: cell-based; conditions: HEK293T, 5, 10 and 20 μM
T1 construct: Transfection vector encoded full-length RAS was fused to the donor molecule RLuc8; expressed in transfected cells; host or cells: HEK293T
Text: (§1) Fig. 4 Abd-7 disrupting RAS-effector interactions. HEK293T cells were transfected with different BRET-based RAS biosensor expression vectors to evaluate the inhibition of RAS PPI in cells by compound Abd-7. Transfection vector encoded full-length RAS was fused to the donor molecule RLuc8 and the effectors fused to the acceptor molecule GFP[2]. a Effect of Abd-2 and Abd-7 on KRAS^G12D interaction with PI3Kα, PI3Kγ, CRAF or RALGDS. The BRET signal is plotted as a % of control cells treated with DMSO only and dose response to 5, 10 and 20 μM of each compound. b Effect of Abd-2 and Abd-7 on the BRET signal from interaction of KRAS^G12 mutants (Rluc8-KRAS^G12) and full-length CRAF (GFP[2]-CRAF FL). c, d Effect of Abd-2 and Abd-7 on the interaction of NRAS^Q61H (c) and HRAS^G12V (d) with various RAS effectors domain and with full-length CRAF. The BRET ratio corresponds to the light emitted by the GFP[2] acceptor constructs (515 nm ± 30) upon addition of Coelenterazine 400a divided by the light emitted by the RLuc8 donor constructs (410 nm ± 80). The normalized BRET ratio is the BRET ratio normalized to the DMSO negative and calculated as follows: (BRETcompound/BRETDMSO) x 100, where BRETcompound corresponds to the BRET ratio for the compound-treated cells, BRETDMSO to the DMSO-treated cells. Each experiment was repeated at least three times. […]

[2] = target: T2, HRAS^G12V interacting with PI3Kα, PI3Kγ, CRAF-RBD or full-length CRAF and RALGDS-RBD (Homo sapiens, UniProt P01112, G12V); experiment: BRET2 RAS-effector PPI assay, HRAS G12V; type: cell-based; conditions: HEK293T, 5, 10 and 20 μM
T2 construct: Transfection vector encoded full-length RAS was fused to the donor molecule RLuc8; expressed in transfected cells; host or cells: HEK293T
Text: as §1

[3] = test system: RAS-effector PPI; experiment: RAS biosensor BRET assay (partners not specified); type: cell-based, human
Description: The BRET assay was carried out as described elsewhere. A total of 650,000 HEK293T were seeded in each well of a six well plate. Approximately, 24 h later, cells were transfected with an appropriated BRET-based RAS biosensor (i.e. RAS-effector) using Lipofectamine 2000 transfection reagent (Thermo-Fisher). Cells were detached 24 h later and washed with PBS and seeded in a white 96 well plate (clear bottom, PerkinElmer, cat#6005181) in OptiMEM no phenol red medium (Life Technologies) complemented with 4% FBS. Cells were left for 4 h at 37 °C before adding compounds. […] The final concentrations in the cells were 0, 5, 10 and 20 μM (therefore the intermediate 10X concentrations were 0, 50, 100 and 200 μM. Furthermore, 10 μl of 10X compounds were added in each well of the 96 well plate to 0, 5, 10 and 20 μM final concentrations (with final 0.2% DMSO each). Quadruplicates were performed for each point. Cells were left for an additional 20 h at 37 °C before the BRET2 signal reading directly after addition of Coelenterazine 400a substrate (10 μM final) to cells (Cayman Chemicals, cat#16157). BRET2 reading was carried out on an Envision instrument (2103 Multilabel Reader, PerkinElmer) with the BRET2 Dual Emission optical module (515 nm ± 30 and 410 nm ± 80; PerkinElmer).

[4] = target: T3, HRASG12V-GTPγS (Homo sapiens, UniProt P01112, G12V); experiment: waterLOGSY NMR titration for Kd; type: binding
T3 construct: expression of HRAS (1-166) HRAS^G12V or KRAS^G12V cDNA cloned into the pGEX-2T vector; GST (N); made in house; host or cells: E. coli C41(DE3)
Description: The waterLOGSY NMR method[35] was used to measure RAS ligand interaction. WaterLOGSY experiments were conducted at a ^1H frequency of 600 MHz using a Bruker Avance spectrometer equipped with a BBI probe. All experiments were conducted at 298 K, 3 mm diameter NMR tubes with a sample final volume of 200 µl was used in all experiments. Solutions were buffered using an H2O 10 mM PBS, 5 mM MgCl2 buffer corrected to pH 7.4. The sample preparation is exemplified as follows, the compound (10 µl of a […] solution in DMSO-d6) was added to an eppendorf before sequential addition of the H2O PBS buffer (163.6 µl), D2O (20 µl), and protein (6.4 µl, 311.8 µM). The resulting solution was spun to ensure full mixing and transferred to a 3 mm NMR tube before running the experiment. […]
NMR spectra from the Abd-2 titration ranging from 50 to 400μM compound. The dissociation constant of Abd-2 binding to HRASG12V-GTPγS was determined from the curve generated by plotting the reduction of the NMR signal from a selected peak (depicted in green) during the compound titration against the protein. […]

[5] = target: T4, KRAS^G12D interaction with PI3Kα, PI3Kγ, CRAF RBD and RALGDS RA (Homo sapiens, UniProt P01116, G12D); experiment: BRET2 RAS-effector PPI assay, KRAS G12D; type: cell-based; conditions: HEK293T, 5, 10 and 20 μM, 20 h
T4 construct: Transfection vector encoded full-length RAS was fused to the donor molecule RLuc8; expressed in transfected cells; host or cells: HEK293T
Text: as §1

[6] = Caco-2 cell permeability assay; type: in vitro ADME; conditions: human

| Compound | effect on BRET signal, NRAS^Q61H with effectors [1] | effect on BRET signal, HRAS^G12V with effectors [2] | activity in the RAS biosensor BRET assay [3] | ligand efficiency [4] | Kd ([4]; waterLOGSY titration 50 to 400 μM compound, single experimental analysis, read-out: Kd (dissociation constant)) [µM] | effect on BRET signal, KRAS^G12D with PI3Kα, PI3Kγ, CRAF RBD, RALGDS RA [5] | Papp A→B [6] [×10⁻⁶ cm/s] | Papp B→A [6] [×10⁻⁶ cm/s] |
| --- | --- | --- | --- | --- | --- | --- | --- | --- |
| O=C(NCC1COc2ccccc2O1)c1ccco1 (centres unmarked) [Abd-2] | does not | does not | do not show activity | 0.26 | 235 | no effect | – | – |
| COc1nc(-c2cccc3c2OCCO3)ccc1Nc1ccc(CN(C)C)cc1 [Abd-7] | interferes | interferes | – | – | – | reduces the BRET signal | 7.03 | 8.46 |
